Assay results as given in PMC9898036, “VIP152 is a selective CDK9 inhibitor with pre-clinical in vitro and in vivo efficacy in chronic lymphocytic leukemia” (Leukemia, 2022).

How the values were obtained:
Assay in all cases: DiscoverX KINOMEscan kinase profiling (468 assays)
Format in all cases: binding
human kinome [1] = molecular target: human kinome (Homo sapiens, UniProt O14730); settings: kinase RIOK3 (Entrez RIOK3); compound concentration 1000 nM; read-out: Percent Control
Summary of the method: (§1)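 VIP152 was run in DMSO, alongside a DMSO control. Readout was qPCR of DNA-tagged kinase still bound to bead-immobilized biotinylated kinase ligands after compound competition.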

human kinome [2] = molecular target: human kinome (Homo sapiens, UniProt P45983); settings: JNK1 (Entrez MAPK8); 100 nM; read-out: Percent Control
Summary of the method: as §1

human kinome [3] = molecular target: human kinome (Homo sapiens, UniProt P10721, T670I/V559D); settings: KIT(V559D,T670I); 100 nM; read-out: Percent Control
Summary of the method: as §1

human kinome [4] = molecular target: human kinome (Homo sapiens, UniProt Q15139); settings: read-out: Percent Control
Summary of the method: as §1

human kinome [5] = molecular target: human kinome (Homo sapiens, UniProt P32298); settings: GRK4; 100 nM; read-out: Percent Control
Summary of the method: as §1

human kinome [6] = molecular target: human kinome (Homo sapiens, UniProt O14976); settings: GAK; 100 nM; read-out: Percent Control
Summary of the method: as §1

human kinome [7] = molecular target: human kinome (Homo sapiens, UniProt Q8IW41); settings: MAPKAPK5; 100 nM; read-out: Percent Control
Summary of the method: as §1

human kinome [8] = molecular target: human kinome (Homo sapiens, UniProt P57059); settings: kinase SIK (Entrez SIK1); compound concentration 1000 nM; read-out: Percent Control
Summary of the method: as §1

human kinome [9] = molecular target: human kinome (Homo sapiens, UniProt Q9UL54); settings: kinase TAOK2 (Entrez TAOK2); compound concentration 1000 nM; read-out: Percent Control
Summary of the method: as §1

human kinome [10] = molecular target: human kinome (Homo sapiens, UniProt P54764); settings: EPHA4; 100 nM; read-out: Percent Control
Summary of the method: as §1

human kinome [11] = molecular target: human kinome (Homo sapiens, UniProt Q8IVH8); settings: MAP4K3; 100 nM; read-out: Percent Control
Summary of the method: as §1

human kinome [12] = molecular target: human kinome (Homo sapiens, UniProt Q8IY84); settings: read-out: Percent Control
Summary of the method: as §1

human kinome [13] = molecular target: human kinome (Homo sapiens, UniProt P06241); settings: FYN; 100 nM; read-out: Percent Control
Summary of the method: as §1

human kinome [14] = molecular target: human kinome (Homo sapiens, UniProt P25098); settings: GRK2 (Entrez ADRBK1); 100 nM; read-out: Percent Control
Summary of the method: as §1

human kinome [15] = molecular target: human kinome (Homo sapiens, UniProt Q13882); settings: BRK (Entrez PTK6); 100 nM; read-out: Percent Control
Summary of the method: as §1

human kinome [16] = molecular target: human kinome (Homo sapiens, UniProt Q04912); settings: MST1R; 100 nM; read-out: Percent Control
Summary of the method: as §1

human kinome [17] = molecular target: human kinome (Homo sapiens, UniProt O94804); settings: LOK (Entrez STK10); 100 nM; read-out: Percent Control
Summary of the method: as §1

human kinome [18] = molecular target: human kinome (Homo sapiens, UniProt P45985); settings: MEK4 (Entrez MAP2K4); 100 nM; read-out: Percent Control
Summary of the method: as §1

human kinome [19] = molecular target: human kinome (Homo sapiens, UniProt Q00535); settings: CDK5; 100 nM; read-out: Percent Control
Summary of the method: as §1

human kinome [20] = molecular target: human kinome (Homo sapiens, UniProt O43293); settings: DAPK3; 100 nM; read-out: Percent Control
Summary of the method: as §1

human kinome [21] = molecular target: human kinome (Homo sapiens, UniProt Q00537); settings: read-out: Percent Control
Summary of the method: as §1

human kinome [22] = molecular target: human kinome (Homo sapiens, UniProt P49759); settings: CLK1; 100 nM; read-out: Percent Control
Summary of the method: as §1

human kinome [23] = molecular target: human kinome (Homo sapiens, UniProt Q15746); settings: read-out: Percent Control
Summary of the method: as §1

human kinome [24] = molecular target: human kinome (Homo sapiens, UniProt P54762); settings: EPHB1; 100 nM; read-out: Percent Control
Summary of the method: as §1

human kinome [25] = molecular target: human kinome (Homo sapiens, UniProt P49761); settings: CLK3; 100 nM; read-out: Percent Control
Summary of the method: as §1

human kinome [26] = molecular target: human kinome (Homo sapiens, UniProt P41240); settings: CSK; 100 nM; read-out: Percent Control
Summary of the method: as §1

human kinome [27] = molecular target: human kinome (Homo sapiens, UniProt O00238); settings: BMPR1B; 100 nM; read-out: Percent Control
Summary of the method: as §1

human kinome [28] = molecular target: human kinome (Homo sapiens, UniProt P00533, L858R); settings: EGFR(L858R); 100 nM; read-out: Percent Control
Summary of the method: as §1

human kinome [29] = molecular target: human kinome (Homo sapiens, UniProt Q9BQI3); settings: EIF2AK1; 100 nM; read-out: Percent Control
Summary of the method: as §1

human kinome [30] = molecular target: human kinome (Homo sapiens, UniProt P30291); settings: kinase WEE1 (Entrez WEE1); compound concentration 1000 nM; read-out: Percent Control
Summary of the method: as §1

human kinome [31] = molecular target: human kinome (Homo sapiens, UniProt Q16513); settings: read-out: Percent Control
Summary of the method: as §1

human kinome (Homo sapiens, UniProt Q00537), sequence (Q00537 whole entry): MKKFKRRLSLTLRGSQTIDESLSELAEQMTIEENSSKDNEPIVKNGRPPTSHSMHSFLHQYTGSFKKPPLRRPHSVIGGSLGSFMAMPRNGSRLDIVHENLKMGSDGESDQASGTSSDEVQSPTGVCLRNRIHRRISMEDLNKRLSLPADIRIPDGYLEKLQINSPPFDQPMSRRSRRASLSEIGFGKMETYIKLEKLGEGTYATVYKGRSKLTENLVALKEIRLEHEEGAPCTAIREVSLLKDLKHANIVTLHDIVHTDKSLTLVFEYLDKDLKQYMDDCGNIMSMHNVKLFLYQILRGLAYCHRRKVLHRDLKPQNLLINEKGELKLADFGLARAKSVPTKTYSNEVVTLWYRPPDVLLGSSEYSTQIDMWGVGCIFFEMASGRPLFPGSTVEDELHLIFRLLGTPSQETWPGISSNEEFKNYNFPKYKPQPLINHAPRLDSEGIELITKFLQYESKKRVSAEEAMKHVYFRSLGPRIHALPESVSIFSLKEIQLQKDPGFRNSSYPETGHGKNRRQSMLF
human kinome (Homo sapiens, UniProt Q8IY84), sequence (Q8IY84 whole entry): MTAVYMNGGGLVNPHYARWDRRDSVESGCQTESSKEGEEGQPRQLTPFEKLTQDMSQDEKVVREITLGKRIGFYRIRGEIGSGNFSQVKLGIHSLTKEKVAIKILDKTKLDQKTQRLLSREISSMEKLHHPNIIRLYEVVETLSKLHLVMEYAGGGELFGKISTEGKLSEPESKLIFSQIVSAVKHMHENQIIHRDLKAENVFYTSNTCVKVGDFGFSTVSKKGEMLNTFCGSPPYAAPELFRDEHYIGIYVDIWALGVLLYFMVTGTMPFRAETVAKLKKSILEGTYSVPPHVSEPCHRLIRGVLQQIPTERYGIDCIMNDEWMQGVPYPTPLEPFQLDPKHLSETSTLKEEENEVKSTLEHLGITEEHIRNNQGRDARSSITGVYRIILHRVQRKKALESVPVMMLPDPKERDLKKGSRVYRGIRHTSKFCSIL
human kinome (Homo sapiens, UniProt Q16513), sequence (Q16513 whole entry): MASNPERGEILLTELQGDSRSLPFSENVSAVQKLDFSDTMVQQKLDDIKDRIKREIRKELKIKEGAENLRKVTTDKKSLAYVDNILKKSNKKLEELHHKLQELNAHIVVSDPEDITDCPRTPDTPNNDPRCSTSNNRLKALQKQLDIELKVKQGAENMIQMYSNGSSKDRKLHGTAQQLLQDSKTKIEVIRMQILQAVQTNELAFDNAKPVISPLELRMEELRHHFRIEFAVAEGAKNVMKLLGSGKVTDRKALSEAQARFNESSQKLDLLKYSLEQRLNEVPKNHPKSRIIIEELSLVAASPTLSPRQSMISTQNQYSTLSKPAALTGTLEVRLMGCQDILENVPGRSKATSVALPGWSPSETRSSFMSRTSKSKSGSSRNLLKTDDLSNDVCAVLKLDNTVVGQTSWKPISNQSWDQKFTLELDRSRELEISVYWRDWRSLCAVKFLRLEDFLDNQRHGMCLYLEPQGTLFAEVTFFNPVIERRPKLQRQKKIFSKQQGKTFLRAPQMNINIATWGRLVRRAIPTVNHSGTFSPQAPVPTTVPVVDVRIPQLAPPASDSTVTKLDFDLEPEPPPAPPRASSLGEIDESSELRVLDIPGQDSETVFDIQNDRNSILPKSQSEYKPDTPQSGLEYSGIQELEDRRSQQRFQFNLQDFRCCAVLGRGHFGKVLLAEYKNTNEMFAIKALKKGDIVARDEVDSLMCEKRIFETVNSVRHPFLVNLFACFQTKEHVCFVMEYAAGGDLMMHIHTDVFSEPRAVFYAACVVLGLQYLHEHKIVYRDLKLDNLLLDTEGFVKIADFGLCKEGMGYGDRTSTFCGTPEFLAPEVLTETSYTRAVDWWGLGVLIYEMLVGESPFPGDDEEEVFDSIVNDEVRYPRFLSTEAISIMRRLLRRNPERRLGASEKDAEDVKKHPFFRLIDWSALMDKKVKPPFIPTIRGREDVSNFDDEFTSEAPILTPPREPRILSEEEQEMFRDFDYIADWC
human kinome (Homo sapiens, UniProt Q15139), sequence (Q15139 whole entry): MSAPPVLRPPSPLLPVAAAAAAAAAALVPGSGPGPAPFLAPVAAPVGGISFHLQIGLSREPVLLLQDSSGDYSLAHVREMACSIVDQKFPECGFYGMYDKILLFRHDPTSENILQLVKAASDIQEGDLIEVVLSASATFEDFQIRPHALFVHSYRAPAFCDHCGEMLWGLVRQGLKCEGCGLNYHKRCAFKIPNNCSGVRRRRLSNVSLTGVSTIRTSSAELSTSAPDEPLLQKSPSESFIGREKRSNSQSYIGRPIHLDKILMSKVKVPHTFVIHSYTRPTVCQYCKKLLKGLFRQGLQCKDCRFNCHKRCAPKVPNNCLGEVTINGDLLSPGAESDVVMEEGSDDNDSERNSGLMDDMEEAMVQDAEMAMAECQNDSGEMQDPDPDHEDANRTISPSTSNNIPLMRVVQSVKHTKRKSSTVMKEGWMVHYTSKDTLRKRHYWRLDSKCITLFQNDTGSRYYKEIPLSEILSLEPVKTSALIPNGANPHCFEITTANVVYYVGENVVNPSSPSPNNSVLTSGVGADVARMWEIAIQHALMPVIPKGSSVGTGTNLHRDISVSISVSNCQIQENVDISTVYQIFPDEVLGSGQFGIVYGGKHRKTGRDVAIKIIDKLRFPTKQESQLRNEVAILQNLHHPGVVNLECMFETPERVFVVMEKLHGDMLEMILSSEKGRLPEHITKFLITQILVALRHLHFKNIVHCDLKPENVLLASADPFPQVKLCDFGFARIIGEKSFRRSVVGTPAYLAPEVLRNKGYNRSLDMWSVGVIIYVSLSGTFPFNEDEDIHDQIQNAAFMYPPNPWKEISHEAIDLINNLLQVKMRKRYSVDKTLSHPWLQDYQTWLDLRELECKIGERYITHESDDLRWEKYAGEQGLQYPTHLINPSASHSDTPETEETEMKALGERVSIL
human kinome (Homo sapiens, UniProt Q15746), sequence (Q15746 whole entry): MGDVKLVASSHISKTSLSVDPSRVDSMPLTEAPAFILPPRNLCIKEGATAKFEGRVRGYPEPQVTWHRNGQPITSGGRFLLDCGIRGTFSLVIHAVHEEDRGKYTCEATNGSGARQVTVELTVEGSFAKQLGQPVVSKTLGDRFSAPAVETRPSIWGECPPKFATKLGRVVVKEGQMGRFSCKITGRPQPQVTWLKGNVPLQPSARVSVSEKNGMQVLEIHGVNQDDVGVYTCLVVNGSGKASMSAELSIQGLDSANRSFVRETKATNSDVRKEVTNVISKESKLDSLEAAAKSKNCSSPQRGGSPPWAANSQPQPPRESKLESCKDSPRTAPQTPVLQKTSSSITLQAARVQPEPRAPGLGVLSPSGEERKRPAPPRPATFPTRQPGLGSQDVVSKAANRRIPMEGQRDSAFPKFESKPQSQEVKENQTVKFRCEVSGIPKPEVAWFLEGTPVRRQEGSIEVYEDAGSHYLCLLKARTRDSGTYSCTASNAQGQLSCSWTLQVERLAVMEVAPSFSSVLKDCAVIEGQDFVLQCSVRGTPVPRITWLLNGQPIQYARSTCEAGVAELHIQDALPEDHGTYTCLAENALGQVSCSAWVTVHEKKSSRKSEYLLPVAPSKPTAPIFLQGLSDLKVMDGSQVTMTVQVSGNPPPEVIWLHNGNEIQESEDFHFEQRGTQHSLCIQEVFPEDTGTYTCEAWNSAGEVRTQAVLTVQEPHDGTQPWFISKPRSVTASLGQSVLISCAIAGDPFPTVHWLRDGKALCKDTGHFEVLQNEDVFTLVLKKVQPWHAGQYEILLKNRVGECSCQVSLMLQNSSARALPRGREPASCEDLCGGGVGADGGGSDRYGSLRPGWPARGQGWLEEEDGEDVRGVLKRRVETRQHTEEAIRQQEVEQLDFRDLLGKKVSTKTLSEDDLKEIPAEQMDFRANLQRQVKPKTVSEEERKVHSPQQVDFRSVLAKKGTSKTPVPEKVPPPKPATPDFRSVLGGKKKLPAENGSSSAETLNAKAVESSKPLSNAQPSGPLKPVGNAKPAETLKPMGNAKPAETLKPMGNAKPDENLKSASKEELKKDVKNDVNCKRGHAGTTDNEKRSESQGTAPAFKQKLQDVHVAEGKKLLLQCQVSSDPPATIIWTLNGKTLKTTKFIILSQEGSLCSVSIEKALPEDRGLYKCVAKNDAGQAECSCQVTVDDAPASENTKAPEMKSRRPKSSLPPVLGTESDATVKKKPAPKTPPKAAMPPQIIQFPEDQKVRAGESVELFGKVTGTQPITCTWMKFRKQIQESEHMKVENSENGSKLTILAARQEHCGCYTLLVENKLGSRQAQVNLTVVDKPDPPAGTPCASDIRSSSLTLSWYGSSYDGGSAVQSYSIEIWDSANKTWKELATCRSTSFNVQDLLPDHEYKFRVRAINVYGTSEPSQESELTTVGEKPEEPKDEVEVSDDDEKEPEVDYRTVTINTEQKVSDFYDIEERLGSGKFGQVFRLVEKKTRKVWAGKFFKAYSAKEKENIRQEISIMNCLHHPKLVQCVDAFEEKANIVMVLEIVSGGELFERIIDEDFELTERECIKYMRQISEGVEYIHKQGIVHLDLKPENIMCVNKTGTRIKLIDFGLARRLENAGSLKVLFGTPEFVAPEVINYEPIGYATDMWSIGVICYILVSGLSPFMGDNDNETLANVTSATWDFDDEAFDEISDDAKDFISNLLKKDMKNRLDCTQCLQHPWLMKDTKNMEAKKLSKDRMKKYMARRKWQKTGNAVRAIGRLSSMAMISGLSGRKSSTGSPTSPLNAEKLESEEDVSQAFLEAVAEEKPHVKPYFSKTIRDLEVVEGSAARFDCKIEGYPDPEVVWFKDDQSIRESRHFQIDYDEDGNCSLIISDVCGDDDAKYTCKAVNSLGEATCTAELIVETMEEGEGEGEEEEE
human kinome (Homo sapiens, UniProt Q00535), sequence (Q00535 whole entry): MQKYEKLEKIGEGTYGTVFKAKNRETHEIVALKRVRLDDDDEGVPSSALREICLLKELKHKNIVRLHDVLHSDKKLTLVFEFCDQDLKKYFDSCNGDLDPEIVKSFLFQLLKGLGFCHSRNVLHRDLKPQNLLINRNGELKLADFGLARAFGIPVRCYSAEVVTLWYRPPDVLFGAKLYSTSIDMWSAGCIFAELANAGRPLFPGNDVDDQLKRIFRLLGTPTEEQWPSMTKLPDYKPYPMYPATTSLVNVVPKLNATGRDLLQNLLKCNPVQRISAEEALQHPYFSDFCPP

**Q.** What does the source list for `COc1cc(F)ccc1-c1cc(Nc2cc(CS(C)(=N)=O)ccn2)ncc1F` (stereo not drawn) [VIP152]?
**A.** remaining binding at 1 µM (human kinome [1]): 79%; remaining binding at 0.1 µM (human kinome [2]): 98%; remaining binding at 0.1 µM (human kinome [3]): 100%; remaining binding at 0.1 µM (human kinome [4]; PRKD1, 100 nM): 71%; remaining binding at 1 µM (human kinome [4]; kinase PRKD1 (Entrez PRKD1), compound concentration 1000 nM): 100%; remaining binding at 0.1 µM (human kinome [5]): 88%; remaining binding at 0.1 µM (human kinome [6]): 79%; remaining binding at 0.1 µM (human kinome [7]): 100%; remaining binding at 1 µM (human kinome [8]): 88%; remaining binding at 1 µM (human kinome [9]): 67%; remaining binding at 0.1 µM (human kinome [10]): 73%; remaining binding at 0.1 µM (human kinome [11]): 100%; remaining binding at 0.1 µM (human kinome [12]; NIM1 (Entrez MGC42105), 100 nM): 100%; remaining binding at 1 µM (human kinome [12]; kinase NIM1 (Entrez MGC42105), compound concentration 1000 nM): 86%; remaining binding at 0.1 µM (human kinome [13]): 100%; remaining binding at 0.1 µM (human kinome [14]): 100%; remaining binding at 0.1 µM (human kinome [15]): 100%; remaining binding at 0.1 µM (human kinome [16]): 100%; remaining binding at 0.1 µM (human kinome [17]): 95%; remaining binding at 0.1 µM (human kinome [18]): 100%; remaining binding at 0.1 µM (human kinome [19]): 100%; remaining binding at 0.1 µM (human kinome [20]): 100%; remaining binding at 0.1 µM (human kinome [21]; PCTK2 (Entrez CDK17), 100 nM): 100%; remaining binding at 1 µM (human kinome [21]; kinase PCTK2 (Entrez CDK17), compound concentration 1000 nM): 54%; remaining binding at 0.1 µM (human kinome [22]): 92%; remaining binding at 0.1 µM (human kinome [23]; MYLK, 100 nM): 95%; remaining binding at 1 µM (human kinome [23]; kinase MYLK (Entrez MYLK), compound concentration 1000 nM): 77%; remaining binding at 0.1 µM (human kinome [24]): 100%; remaining binding at 0.1 µM (human kinome [25]): 93%; remaining binding at 0.1 µM (human kinome [26]): 100%; remaining binding at 0.1 µM (human kinome [27]): 95%; remaining binding at 0.1 µM (human kinome [28]): 100%; remaining binding at 0.1 µM (human kinome [29]): 100%; remaining binding at 1 µM (human kinome [30]): 86%; remaining binding at 0.1 µM (human kinome [31]; PKN2, 100 nM): 96%; remaining binding at 1 µM (human kinome [31]; kinase PKN2 (Entrez PKN2), compound concentration 1000 nM): 92%
